Source: patent publication EP4238581A1, “TARGETED DELIVERY OF OLIGONUCLEOTIDES INTO EUKARYOTIC CELLS USING HYBRID MALTOSE/CYCLODEXTRIN POLYPLEXES” (Technische Universität Dresden e. V., priority 2022, dated 2023)

System: 293T-PSCA cells
Test: Endocytosis inhibitors and GFP transfection by scFv(AM1)-P-BAP hybrid polyplexes
Assay type: cell-based
Details: cells transfected with scFv(AM1)-P-BAP hybrid polyplexes loaded with MC encoding GFP; inhibitor concentration not given
From the text: To investigate if a receptor-mediated endocytosis contributes to uptake of scFv-P-BAP hybrid polyplexes clathrin-dependent and clathrin-independent endocytosis was blocked using chlorpromazine and filipin III.

Row | SMILES | fraction of GFP-positive 293T-PSCA cells
1 | CCCCC[C@@H](O)[C@H]1C(=O)O[C@H](C)[C@@H](O)/C=C/C=C/C=C/C=C/C=C(\C)[C@@H](O)C[C@H](O)C[C@H](O)C[C@H](O)C[C@H](O)C[C@H](O)C[C@@H]1O [filipin III] | significant decrease
2 | CN(C)CCCN1c2ccccc2Sc2ccc(Cl)cc21 [chlorpromazine] | significant decrease
